According to ChEMBL document CHEMBL1124723, “Selective inhibition of gamma-aminobutyric acid aminotransferase by (3R,4R),(3S,4S)- and (3R,4S),(3S,4R)-4-amino-5-fluoro-3-phenylpentanoic acids” (J Med Chem, 1990):

Key:
[1] = Binding affinity against L-glutamate decarboxylase in pig brain; format: tissue-based, Sus scrofa
[2] = biological target: 4-aminobutyrate aminotransferase, mitochondrial (Sus scrofa, UniProt P80147); experiment: Binding affinity against Gamma-amino-N-butyrate transaminase in pig brain; format: tissue-based
Chain of 4-aminobutyrate aminotransferase, mitochondrial (P80147 whole entry): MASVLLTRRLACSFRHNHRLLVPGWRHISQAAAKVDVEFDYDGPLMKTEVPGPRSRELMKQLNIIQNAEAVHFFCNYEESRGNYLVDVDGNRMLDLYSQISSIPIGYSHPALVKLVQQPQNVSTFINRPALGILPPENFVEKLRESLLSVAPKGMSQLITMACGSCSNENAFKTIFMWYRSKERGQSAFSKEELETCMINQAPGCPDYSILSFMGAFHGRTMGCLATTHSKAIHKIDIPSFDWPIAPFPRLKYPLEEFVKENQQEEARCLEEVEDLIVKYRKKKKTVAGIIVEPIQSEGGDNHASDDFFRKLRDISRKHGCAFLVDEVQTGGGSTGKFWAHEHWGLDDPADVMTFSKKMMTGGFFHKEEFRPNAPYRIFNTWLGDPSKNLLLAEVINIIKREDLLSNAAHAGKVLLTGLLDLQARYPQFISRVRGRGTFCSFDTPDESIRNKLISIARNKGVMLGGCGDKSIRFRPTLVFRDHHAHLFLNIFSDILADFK

NC(CF)CCC(=O)O (stereo not drawn)
Ki [1]: 71 µM

N[C@@H](CF)[C@@H](CC(=O)O)c1ccccc1
Ki [2]: 8 mM

N[C@H](CF)[C@@H](CC(=O)O)c1ccccc1
Ki [2]: 1 mM
